From patent US20130096105A1, “ArylSulfonamide Based Matrix Metalloprotease Inhibitors” (NOVARTIS AG, priority 2008, published 2013)

Experiments:
[1] = target: Collagenase-3 (MMP-13) (Homo sapiens, UniProt P45452); test: Collagenase-3 (MMP-13) inhibitory activity, fluorogenic peptide substrate cleavage; type: biochemical; details: read-out: MMP13 IC50
Procedure: (§1) Gelatinase (MMP-2) inhibitory activities can be determined as follows: Stock solutions of substrate (MCA-Lys-Pro-Leu-Gly-Leu-Dpa-Ala-Arg-NH2) are prepared in DMSO at a concentration of 1.4 mM. Stock solutions of inhibitors (0.03 μM-3 mM) are also prepared in DMSO. The inhibitors are diluted into the assay solutions, and the controls use an equal volume of DMSO so that the final DMSO concentration from the inhibitor and substrate dilutions in all assays is 1.0%. Assays are performed in an assay buffer (100 mM sodium chloride, 10 μM ZnCl. Sub 2, 10 mM CaCl2, 100 mM Tris-Cl pH7.5, 0.05% Brij-35), containing 1.0% DMSO from the substrate and inhibitor additions. The substrate concentration used in the assays is 5 μM. The assays are carried out at 20-25° C. The fluorescence changes, as a result of substrate cleavage, are monitored using an excitation wavelength of 325 nm and an emission wavelength of 405 nm. The reaction mixtures are added in duplicate into appropriate wells of a 384-well assay plate. The reaction mixtures are preincubated with the inhibitors for 60 minutes The reactions are started by the addition of MMP substrate, and the fluorescence intensity changes are measured after 60 minutes The apparent enzyme activity in the presence of an inhibitor is then compared with that in the absence of any inhibitor to determine the inhibition effect of the inhibitor. These techniques are within the knowledge of one skilled in the art. The inhibition results are expressed as the inhibitor concentrations required to effect 50% inhibition (IC50) of the enzyme activity, as compared with the control (non-inhibited) reactions.
Collagenase-3 (MMP-13) inhibitory activity is determined as described above. Recombinant pro-collagenase-3 is activated with 1 mM APMA, and stored in the assay buffer after extensive dialysis in the assay buffer.

[2] = target: T1, Gelatinase (MMP-2) (Homo sapiens, UniProt P08253); test: Gelatinase (MMP-2) inhibitory activity, fluorogenic peptide substrate cleavage; type: biochemical; details: read-out: MMP02 IC50
T1 sequence (P08253 110-660): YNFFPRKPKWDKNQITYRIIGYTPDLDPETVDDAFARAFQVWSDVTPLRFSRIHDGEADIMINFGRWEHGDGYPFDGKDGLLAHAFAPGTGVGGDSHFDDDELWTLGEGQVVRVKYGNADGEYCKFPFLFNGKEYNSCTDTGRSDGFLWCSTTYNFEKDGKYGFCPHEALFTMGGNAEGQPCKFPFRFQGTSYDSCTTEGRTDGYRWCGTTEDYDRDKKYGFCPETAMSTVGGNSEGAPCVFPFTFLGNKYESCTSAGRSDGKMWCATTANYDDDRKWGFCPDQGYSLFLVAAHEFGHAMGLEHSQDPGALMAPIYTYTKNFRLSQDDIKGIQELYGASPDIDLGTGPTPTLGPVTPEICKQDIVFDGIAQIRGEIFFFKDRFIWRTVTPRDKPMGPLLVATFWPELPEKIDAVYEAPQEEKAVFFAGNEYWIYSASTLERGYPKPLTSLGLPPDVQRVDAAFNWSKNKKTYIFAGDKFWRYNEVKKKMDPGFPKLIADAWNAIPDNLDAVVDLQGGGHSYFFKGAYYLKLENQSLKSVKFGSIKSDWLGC
Procedure: as §1

NS(=O)(=O)c1cc(C(=O)c2ccc(N3CC=CC3)cc2)ccc1Cl [Example 81, 2-Chloro-5-[4-(2,5-dihydro-pyrrol-1-yl)-benzoyl]-benzenesulfonamide]
IC50 [1]: 1010 nM
IC50 [2]: 1310 nM

NS(=O)(=O)c1cc(C(=O)c2ccc(-n3cccc3)cc2)ccc1Cl [Example 82, 2-Chloro-5-(4-pyrrol-1-yl-benzoyl)-benzenesulfonamide]
IC50 [1]: 860 nM
IC50 [2]: 1150 nM

NS(=O)(=O)c1cc(C(=O)c2ccc(N3CCCCC3)cc2)ccc1Cl [Example 83, 2-Chloro-5-(4-piperidin-1-yl-benzoyl)-benzenesulfonamide]
IC50 [1]: 1770 nM
IC50 [2]: 870 nM

CC1CCCN(c2ccc(C(=O)c3ccc(Cl)c(S(N)(=O)=O)c3)cc2)C1 (stereo not shown) [Example 84, 2-Chloro-5-[4-(3-methyl-piperidin-1-yl)-benzoyl]-benzenesulfonamide]
IC50 [1]: 7540 nM
IC50 [2]: 1350 nM

NS(=O)(=O)c1cc(C(=O)c2ccc(N3CCC(c4ccccc4)CC3)cc2)ccc1Cl [Example 85, 2-Chloro-5-[4-(4-phenyl-piperidin-1-yl)-benzoyl]benzenesulfonamide]
IC50 [1]: 570 nM
IC50 [2]: 2050 nM

NS(=O)(=O)c1cc(C(=O)c2ccc(N3CCC(Cc4ccccc4)CC3)cc2)ccc1Cl [Example 86, 5-[4-(4-Benzyl-piperidin-1-yl)-benzoyl]-2-chloro-benzenesulfonamide]
IC50 [1]: 7670 nM
IC50 [2]: > 30000 nM

CN1CCN(c2ccc(C(=O)c3ccc(Cl)c(S(N)(=O)=O)c3)cc2)CC1 [Example 87, 2-Chloro-5-[4-(4-methyl-piperazin-1-yl)-benzoyl]-benzenesulfonamide]
IC50 [1]: 1190 nM
IC50 [2]: 1740 nM

NS(=O)(=O)c1cc(C(=O)c2ccc(N3CCOCC3)cc2)ccc1Cl [Example 88, 2-Chloro-5-(4-morpholin-4-yl-benzoyl)-benzenesulfonamide]
IC50 [1]: 1840 nM
IC50 [2]: 960 nM

NS(=O)(=O)c1cc(C(=O)c2ccc(N3CCC3=O)cc2)ccc1Cl [Example 89, 2-Chloro-5-[4-(2-oxo-azetidin-1-yl)-benzoyl]-benzenesulfonamide]
IC50 [1]: 3340 nM
IC50 [2]: 2060 nM

NS(=O)(=O)c1cc(C(=O)c2ccc(N3CCCCCC3)cc2)ccc1Cl [Example 90, 5-(4-Azepan-1-yl-benzoyl)-2-chloro-benzenesulfonamide]
IC50 [1]: 10800 nM
IC50 [2]: 13800 nM

COc1ccc(C(=O)c2ccc(Cl)c(S(=O)(=O)NCCc3ccc([N+](=O)[O-])cc3)c2)cc1 [Example 91, 2-Chloro-5-(4-methoxy-benzoyl)-N-[2-(4-nitro-phenyl)-ethyl]-benzenesulfonamide]
IC50 [1]: 22500 nM
IC50 [2]: > 30000 nM

NS(=O)(=O)c1cc(C(=O)c2ccc(Nc3ccccc3)cc2)ccc1Cl [Example 92, 2-Chloro-5-(4-phenylamino-benzoyl)-benzenesulfonamide]
IC50 [1]: 20700 nM
IC50 [2]: 22800 nM

NS(=O)(=O)c1cc(C(=O)c2ccc3ccccc3c2)ccc1Cl [Example 93, 2-Chloro-5-(naphthalene-2-carbonyl)benzenesulfonamide]
IC50 [1]: 13700 nM
IC50 [2]: 26500 nM

NS(=O)(=O)c1cc(C(=O)c2ccc3c(c2)CCC3)ccc1Cl [Example 94, 2-Chloro-5-(indane-5-carbonyl)-benzenesulfonamide]
IC50 [1]: 22600 nM
IC50 [2]: 23500 nM

NS(=O)(=O)c1cc(C(=O)c2cc[nH]c2)ccc1Cl [Example 95, 2-Chloro-5-(1H-pyrrole-3-carbonyl)-benzenesulfonamide]
IC50 [1]: 6210 nM
IC50 [2]: 3970 nM

NS(=O)(=O)c1cc(C(=O)c2cccs2)ccc1Cl [Example 96, 2-Chloro-5-(thiophene-2-carbonyl)-benzenesulfonamide]
IC50 [1]: 14700 nM
IC50 [2]: 10000 nM

NS(=O)(=O)c1cc(C(=O)c2ccc3nc[nH]c3c2)ccc1Cl [Example 97, 5-(3H-Benzoimidazole-5-carbonyl)-2-chloro-benzenesulfonamide]
IC50 [1]: 630 nM
IC50 [2]: 1210 nM

Cc1nc2ccc(C(=O)c3ccc(Cl)c(S(N)(=O)=O)c3)cc2[nH]1 [Example 98, 2-Chloro-5-(2-methyl-3H-benzoimidazole-5-carbonyl)-benzenesulfonamide]
IC50 [1]: 8310 nM
IC50 [2]: 2250 nM

CCc1n[nH]c2cc(C(=O)c3ccc(Cl)c(S(N)(=O)=O)c3)ccc12 [Example 99, 2-Chloro-5-(3-ethyl-1H-indazole-6-carbonyl)-benzenesulfonamide]
IC50 [1]: 250 nM
IC50 [2]: 270 nM

Cc1n[nH]c2cc(C(=O)c3ccc(Cl)c(S(N)(=O)=O)c3)ccc12 [Example 100, 2-Chloro-5-(3-methyl-1H-indazole-6-carbonyl)benzenesulfonamide]
IC50 [1]: 250 nM
IC50 [2]: 260 nM

CC(C)c1n[nH]c2cc(C(=O)c3ccc(Cl)c(S(N)(=O)=O)c3)ccc12 [Example 101, 2-Chloro-5-(3-isopropyl-1H-indazole-6-carbonyl)-benzenesulfonamide]
IC50 [1]: 3650 nM
IC50 [2]: 6350 nM

NS(=O)(=O)c1cc(C(=O)c2ccc3c(c2)[nH]c2ccccc23)ccc1Cl [Example 102, 5-(9H-Carbazole-2-carbonyl)-2-chloro-benzenesulfonamide]
IC50 [1]: 2710 nM
IC50 [2]: 1010 nM

CCOC(=O)N1CCc2[nH]c3cc(C(=O)c4ccc(Cl)c(S(N)(=O)=O)c4)ccc3c2C1 [Example 103, 7-(4-Chloro-3-sulfamoyl-benzoyl)-1,3,4,5-tetrahydro-pyrido[4,3-b]indole-2-carboxylic acid ethyl ester]
IC50 [1]: 360 nM
IC50 [2]: 850 nM

CCOC(=O)N1CCc2[nH]c3ccc(C(=O)c4ccc(Cl)c(S(N)(=O)=O)c4)cc3c2C1 [Example 104, 8-(4-Chloro-3-sulfamoyl-benzoyl)-1,3,4,5-tetrahydro-pyrido[4,3-b]indole-2-carboxylic acid ethyl ester]
IC50 [1]: 1900 nM
IC50 [2]: 21400 nM

NS(=O)(=O)c1cc(C(=O)c2ccc3c4c([nH]c3c2)C(=O)NCC4)ccc1Cl [Example 105, 2-Chloro-5-(1-oxo-2,3,4,9-tetrahydro-1H-beta-carboline-7-carbonyl)-benzenesulfonamide]
IC50 [1]: 9000 nM
IC50 [2]: 8000 nM

CC(C)(C)C(=O)N1CCc2c([nH]c3ccc(C(=O)c4ccc(Cl)c(S(N)(=O)=O)c4)cc23)C1 [Example 106, 2-Chloro-5-[2-(2,2-dimethyl-propionyl)-2,3,4,9-tetrahydro-1H-beta-carbolise-6-carbonyl]-benzenesulfonamide]
IC50 [1]: 950 nM
IC50 [2]: > 2700 nM

CN1C(=O)CCC2=C1Cc1cc(C(=O)c3ccc(Cl)c(S(N)(=O)=O)c3)ccc12 [Example 107, 2-Chloro-5-(1-methyl-2-oxo-2,3,4,9-tetrahydro-1H-indeno[2,1-b]pyridine-7-carbonyl)-benzenesulfonamide]
IC50 [1]: 69 nM
IC50 [2]: 27 nM

CCN1C(=O)CCC2=C1Cc1cc(C(=O)c3ccc(Cl)c(S(N)(=O)=O)c3)ccc12 [Example 108, 2-Chloro-5-(1-ethyl-2-oxo-2,3,4,9-tetrahydro-1H-indeno[2,1-b]pyridine-7-carbonyl)-benzenesulfonamide]
IC50 [1]: 4110 nM
IC50 [2]: 2900 nM

Cc1ccc(C)n1-c1ccc(C(=O)c2ccc(Cl)c(S(N)(=O)=O)c2)cc1F [Example 109, 2-Chloro-5-[4-(2,5-dimethyl-pyrrol-1-yl)-3-fluoro-benzoyl]-benzenesulfonamide]
IC50 [1]: 19900 nM
IC50 [2]: 21800 nM

NS(=O)(=O)c1cc(C(=O)c2c[nH]c3ccccc23)ccc1Cl [Example 113, 2-Chloro-5-(1H-indole-3-carbonyl)-benzenesulfonamide]
IC50 [1]: 3080 nM
IC50 [2]: 8940 nM

Cn1ccc2cc(C(=O)c3ccc(Cl)c(S(N)(=O)=O)c3)ccc21 [Example 114, 2-Chloro-5-(1-methyl-1H-indole-5-carbonyl)-benzenesulfonamide]
IC50 [1]: 3130 nM
IC50 [2]: 3310 nM

NS(=O)(=O)c1cc(C(=O)c2ccc3cc[nH]c3c2)ccc1Cl [Example 115, 2-Chloro-5-(1H-indole-6-carbonyl)-benzenesulfonamide]
IC50 [1]: 178 nM
IC50 [2]: 218 nM
